Here are results for two compounds from PubChem BioAssay AID623935 (Southern Research Specialized Biocontainment Screening …, 2012).

Activity calls are given as the source filed them. No rule for the calls is given here.

This assay concerns Chikungunya virus infected cells, antiviral inhibition. Description: Chikungunya virus antiviral inhibition, dose response, cell-based, secondary assay (AID 623935).

Usually IC50 stands for the concentration that gives 50% inhibition. With `CCN1CCN(Cc2nc3ccc([N+](=O)[O-])cc3c(=O)n2-c2ccccc2F)CC1`, the IC50 was > 100 µM (inactive). Then `CN(C(=O)Cc1cccs1)c1nc2c(s1)CCCC2`, with 3.16 µM.
